Test results taken from patent EP1200395B1, “UREA DERIVATIVES AS INHIBITORS OF CCR-3 RECEPTOR” (KIRIN BEER KABUSHIKI KAISHA, priority 1999, dated 2001).

These compounds were tested against T1, CCR-3 (Homo sapiens, UniProt P51677) (assay: Eotaxin-induced chemotaxis of CCR-3 transfectant cells (CCR3/U937)). Conditions: 10 µM test compound; eotaxin 1 x 10^-9 M; CCR3/U937 cells (Table 3c).
T1 sequence (P51677 1-355): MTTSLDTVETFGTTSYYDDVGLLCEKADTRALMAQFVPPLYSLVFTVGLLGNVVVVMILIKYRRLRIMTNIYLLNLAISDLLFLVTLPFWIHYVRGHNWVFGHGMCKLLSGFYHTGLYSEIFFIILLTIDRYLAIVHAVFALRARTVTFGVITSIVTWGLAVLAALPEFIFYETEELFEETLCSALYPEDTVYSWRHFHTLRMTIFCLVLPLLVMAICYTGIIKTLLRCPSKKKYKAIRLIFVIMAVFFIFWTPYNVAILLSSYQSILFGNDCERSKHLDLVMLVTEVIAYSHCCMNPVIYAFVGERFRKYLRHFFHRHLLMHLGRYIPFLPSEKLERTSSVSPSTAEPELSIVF
Assay type: cell-based
Set-up: expressed in transfected cells; host or cells: U937
CC[N+](CCCNC(=O)Nc1ccccc1)(CCc1ccc(Cl)cc1)Cc1cccc(C)c1.[I-] (centres unmarked) [compound 347] was tested, and the “Chemotaxis Assay 10 µM (inhibition %)” value was 100%.
For CC[N+](CCCNC(=O)Nc1ccccc1)(CCc1ccc(Cl)cc1)Cc1cc2c(cc1Cl)OCO2.[I-] (centres unmarked) [compound 348], the “Chemotaxis Assay 10 µM (inhibition %)” value was 100%.
For CC[N+](CCCNC(=O)Nc1ccccc1)(CCc1ccc(Cl)cc1)Cc1ccc(Cl)c(Cl)c1.[I-] (centres unmarked) [compound 349], the “Chemotaxis Assay 10 µM (inhibition %)” value was 100%.
With CC[N+](CCCNC(=O)Nc1ccccc1)(CCc1ccc(Cl)cc1)Cc1ccc(OCc2ccccc2)c(OCc2ccccc2)c1.[I-] (centres unmarked) [compound 350] the “Chemotaxis Assay 10 µM (inhibition %)” value was 59%.
With CC[N+](CCCNC(=O)Nc1ccccc1)(CCc1ccc(Cl)cc1)Cc1ccc(C)c(C)c1.[I-] (centres unmarked) [compound 353] the “Chemotaxis Assay 10 µM (inhibition %)” value was 100%.
For CC[N+](CCCNC(=O)Nc1ccccc1)(CCc1ccc(Cl)cc1)Cc1cccc(Oc2ccccc2F)c1.[I-] (centres unmarked) [compound 354], the “Chemotaxis Assay 10 µM (inhibition %)” value was 100%.

Same assay, conditions: test compound 0.1 µg/ml; eotaxin 1 x 10^-9 M; CCR3/U937 transfectants; 37 °C, 1 hour
In the case of CC[N+](CCCNC(=O)Nc1ccc(Cl)c(Cl)c1)(CCOCCOC)CCc1ccccc1.[I-] (centres unmarked) [compound 359], the “Chemotaxis Assay 0.1 µg/ml (inhibition %)” value is reported as 49%.
In the case of CC[N+](CCCNC(=O)Nc1ccc(Cl)c(Cl)c1)(CCOCCOC)CCc1cccc(F)c1.[I-] (centres unmarked) [compound 360], the “Chemotaxis Assay 0.1 µg/ml (inhibition %)” value is reported as 70%.
With C=C(C)C[N+](CC)(CCCNC(=O)Nc1ccc(Cl)c(Cl)c1)CCc1ccccc1.[I-] (centres unmarked) [compound 368] the “Chemotaxis Assay 0.1 µg/ml (inhibition %)” value was 88%.
With CC[N+](CCF)(CCCNC(=O)Nc1ccc(Cl)c(Cl)c1)CCc1cccc(Cl)c1.[I-] (centres unmarked) [compound 369] the “Chemotaxis Assay 0.1 µg/ml (inhibition %)” value was 82%.
CC[N+](CCF)(CCCNC(=O)Nc1ccc(Cl)c(Cl)c1)CCc1ccccc1.[I-] (centres unmarked) [compound 370] was tested, and the “Chemotaxis Assay 0.1 µg/ml (inhibition %)” value was 64%.
CC[N+](CCF)(CCCNC(=O)Nc1ccc(Cl)c(Cl)c1)CCc1cccc(F)c1.[I-] (centres unmarked) [compound 371] was tested, and the “Chemotaxis Assay 0.1 µg/ml (inhibition %)” value was 86%.
In the case of CC[N+](CC#N)(CCCNC(=O)Nc1ccc(Br)cc1)CCc1cccc(Cl)c1.[I-] (centres unmarked) [compound 372], the “Chemotaxis Assay 0.1 µg/ml (inhibition %)” value is reported as 76%.
With CC[N+](CCCNC(=O)Nc1ccc(Br)cc1)(CCOCCOC)CCc1cccc(Cl)c1.[I-] (centres unmarked) [compound 373] the “Chemotaxis Assay 0.1 µg/ml (inhibition %)” value was 100%.
For CC[N+](CCCNC(=O)Nc1ccc(Br)cc1)(CCOCCOC)CCc1ccc(Cl)cc1Cl.[I-] (centres unmarked) [compound 374], the “Chemotaxis Assay 0.1 µg/ml (inhibition %)” value was 100%.
CC[N+](CCCNC(=O)Nc1ccc(Br)cc1)(CCOCCOC)CCc1cccc(F)c1.[I-] (centres unmarked) [compound 375] was tested, and the “Chemotaxis Assay 0.1 µg/ml (inhibition %)” value was 91%.
In the case of CC[N+](CCCNC(=O)Nc1ccc(Br)cc1)(CCc1cccc(Cl)c1)CC1CCC1.[I-] (centres unmarked) [compound 376], the “Chemotaxis Assay 0.1 µg/ml (inhibition %)” value is reported as 87%.
CC[N+](CCCNC(=O)Nc1ccc(Br)cc1)(CCc1ccc(Cl)c(Cl)c1)CC1CCC1.[I-] (centres unmarked) [compound 377] was tested, and the “Chemotaxis Assay 0.1 µg/ml (inhibition %)” value was 46%.
With C=C(C)C[N+](CC)(CCCNC(=O)Nc1ccc(Br)cc1)CCc1cccc(Cl)c1.[I-] (centres unmarked) [compound 378] the “Chemotaxis Assay 0.1 µg/ml (inhibition %)” value was 81%.
For CCC(CC)C[N+](CC)(CCCNC(=O)Nc1ccc(Br)cc1)CCc1cccc(Cl)c1.[I-] (centres unmarked) [compound 379], the “Chemotaxis Assay 0.1 µg/ml (inhibition %)” value was 80%.
For CCC(CC)C[N+](CC)(CCCNC(=O)Nc1ccc(Br)cc1)CCc1ccc(Cl)c(Cl)c1.[I-] (centres unmarked) [compound 380], the “Chemotaxis Assay 0.1 µg/ml (inhibition %)” value was 46%.
CC[N+](CCF)(CCCNC(=O)Nc1ccc(Br)cc1)CCc1ccc(Cl)cc1.[I-] (centres unmarked) [compound 381] was tested, and the “Chemotaxis Assay 0.1 µg/ml (inhibition %)” value was 68%.
For CC[N+](CCF)(CCCNC(=O)Nc1ccc(Br)cc1)CCc1cccc(Cl)c1.[I-] (centres unmarked) [compound 382], the “Chemotaxis Assay 0.1 µg/ml (inhibition %)” value was 98%.
In the case of CC[N+](CCF)(CCCNC(=O)Nc1ccc(Br)cc1)CCc1ccc(Cl)cc1Cl.[I-] (centres unmarked) [compound 383], the “Chemotaxis Assay 0.1 µg/ml (inhibition %)” value is reported as 43%.
For CC[N+](CCF)(CCCNC(=O)Nc1ccc(Br)cc1)CCc1ccc(Cl)c(Cl)c1.[I-] (centres unmarked) [compound 384], the “Chemotaxis Assay 0.1 µg/ml (inhibition %)” value was 76%.
In the case of CC[N+](CCF)(CCCNC(=O)Nc1ccc(Br)cc1)CCc1cccc(F)c1.[I-] (centres unmarked) [compound 385], the “Chemotaxis Assay 0.1 µg/ml (inhibition %)” value is reported as 68%.
For CC[N+](CCCNC(=O)Nc1ccc(C(F)(F)F)cc1)(CCOCCOC)CCc1ccc(Cl)cc1.[I-] (centres unmarked) [compound 386], the “Chemotaxis Assay 0.1 µg/ml (inhibition %)” value was 43%.
CC[N+](CCCNC(=O)Nc1ccc(C(F)(F)F)cc1)(CCOCCOC)CCc1cccc(Cl)c1.[I-] (centres unmarked) [compound 387] was tested, and the “Chemotaxis Assay 0.1 µg/ml (inhibition %)” value was 94%.
CC[N+](CCCNC(=O)Nc1ccc(C(F)(F)F)cc1)(CCOCCOC)CCc1ccc(Cl)cc1Cl.[I-] (centres unmarked) [compound 388] was tested, and the “Chemotaxis Assay 0.1 µg/ml (inhibition %)” value was 56%.
With CC[N+](CCCNC(=O)Nc1ccc(C(F)(F)F)cc1)(CCOCCOC)CCc1cccc(F)c1.[I-] (centres unmarked) [compound 389] the “Chemotaxis Assay 0.1 µg/ml (inhibition %)” value was 65%.
In the case of C=C(C)C[N+](CC)(CCCNC(=O)Nc1ccc(C(F)(F)F)cc1)CCc1cccc(Cl)c1.[I-] (centres unmarked) [compound 390], the “Chemotaxis Assay 0.1 µg/ml (inhibition %)” value is reported as 51%.
For CC[N+](CCF)(CCCNC(=O)Nc1ccc(C(F)(F)F)cc1)CCc1cccc(Cl)c1.[I-] (centres unmarked) [compound 391], the “Chemotaxis Assay 0.1 µg/ml (inhibition %)” value was 47%.
In the case of CC[N+](CCCNC(=O)Nc1ccc(C#N)cc1)(CCOCCOC)CCc1cccc(OC)c1.[I-] (centres unmarked) [compound 392], the “Chemotaxis Assay 0.1 µg/ml (inhibition %)” value is reported as 45%.
With CCC(CC)C[N+](CC)(CCCNC(=O)Nc1ccc(C#N)cc1)CCc1cccc(Cl)c1.[I-] (centres unmarked) [compound 402] the “Chemotaxis Assay 0.1 µg/ml (inhibition %)” value was 71%.
With CC[N+](CCF)(CCCNC(=O)Nc1ccc(C#N)cc1)CCc1cccc(Cl)c1.[I-] (centres unmarked) [compound 403] the “Chemotaxis Assay 0.1 µg/ml (inhibition %)” value was 77%.
In the case of CC[N+](CCF)(CCCNC(=O)Nc1ccc(C#N)cc1)CCc1ccc(Cl)cc1Cl.[I-] (centres unmarked) [compound 404], the “Chemotaxis Assay 0.1 µg/ml (inhibition %)” value is reported as 47%.
CC[N+](CCF)(CCCNC(=O)Nc1ccc(C#N)cc1)CCc1c(Cl)cccc1Cl.[I-] (centres unmarked) [compound 405] was tested, and the “Chemotaxis Assay 0.1 µg/ml (inhibition %)” value was 57%.
With CC[N+](CCCNC(=O)Nc1ccccc1)(CCOCCOC)CCc1cccc(OC)c1.[I-] (centres unmarked) [compound 406] the “Chemotaxis Assay 0.1 µg/ml (inhibition %)” value was 43%.
In the case of CC[N+](CCCNC(=O)Nc1ccccc1)(CCc1cccc(Cl)c1)CCC(C)C.[I-] (centres unmarked) [compound 407], the “Chemotaxis Assay 0.1 µg/ml (inhibition %)” value is reported as 52%.
In the case of CC[N+](CCCNC(=O)Nc1ccccc1)(CCc1ccc(Cl)c(Cl)c1)CCC(C)C.[I-] (centres unmarked) [compound 408], the “Chemotaxis Assay 0.1 µg/ml (inhibition %)” value is reported as 74%.
For CC[N+](CCCNC(=O)Nc1ccccc1)(CCc1ccc(Cl)cc1Cl)CC(N)=O.[I-] (centres unmarked) [compound 409], the “Chemotaxis Assay 0.1 µg/ml (inhibition %)” value was 53%.
For CC[N+](CCCNC(=O)Nc1ccccc1)(CCc1ccc(Cl)c(Cl)c1)CC(N)=O.[I-] (centres unmarked) [compound 410], the “Chemotaxis Assay 0.1 µg/ml (inhibition %)” value was “. 50%”.
CC[N+](CC#N)(CCCNC(=O)Nc1ccccc1)CCc1cccc(Cl)c1.[I-] (centres unmarked) [compound 411] was tested, and the “Chemotaxis Assay 0.1 µg/ml (inhibition %)” value was 42%.
CC[N+](CCCNC(=O)Nc1ccccc1)(CCOCCOC)CCc1ccc(Cl)cc1.[I-] (centres unmarked) [compound 412] was tested, and the “Chemotaxis Assay 0.1 µg/ml (inhibition %)” value was 84%.
For CC[N+](CCCNC(=O)Nc1ccccc1)(CCOCCOC)CCc1cccc(Cl)c1.[I-] (centres unmarked) [compound 413], the “Chemotaxis Assay 0.1 µg/ml (inhibition %)” value was 95%.
With CC[N+](CCCNC(=O)Nc1ccccc1)(CCOCCOC)CCc1ccc(Cl)cc1Cl.[I-] (centres unmarked) [compound 414] the “Chemotaxis Assay 0.1 µg/ml (inhibition %)” value was 98%.
With CC[N+](CCCNC(=O)Nc1ccccc1)(CCOCCOC)CCc1ccc(Cl)c(Cl)c1.[I-] (centres unmarked) [compound 415] the “Chemotaxis Assay 0.1 µg/ml (inhibition %)” value was 99%.
CC[N+](CCCNC(=O)Nc1ccccc1)(CCOCCOC)CCc1cccc(F)c1.[I-] (centres unmarked) [compound 416] was tested, and the “Chemotaxis Assay 0.1 µg/ml (inhibition %)” value was 69%.
For CC[N+](CCCNC(=O)Nc1ccccc1)(CCc1ccc(Cl)cc1)CC1CCC1.[I-] (centres unmarked) [compound 417], the “Chemotaxis Assay 0.1 µg/ml (inhibition %)” value was 59%.
For CC[N+](CCCNC(=O)Nc1ccccc1)(CCc1ccc(Cl)cc1Cl)CC1CCC1.[I-] (centres unmarked) [compound 419], the “Chemotaxis Assay 0.1 µg/ml (inhibition %)” value was 76%.
For CC[N+](CCCNC(=O)Nc1ccccc1)(CCc1ccc(Cl)c(Cl)c1)CC1CCC1.[I-] (centres unmarked) [compound 420], the “Chemotaxis Assay 0.1 µg/ml (inhibition %)” value was 99%.
With CC[N+](CCCNC(=O)Nc1ccccc1)(CCc1cccc(F)c1)CC1CCC1.[I-] (centres unmarked) [compound 421] the “Chemotaxis Assay 0.1 µg/ml (inhibition %)” value was 66%.
With C=C(C)C[N+](CC)(CCCNC(=O)Nc1ccccc1)CCc1ccc(Cl)cc1.[I-] (centres unmarked) [compound 422] the “Chemotaxis Assay 0.1 µg/ml (inhibition %)” value was 42%.
In the case of C=C(C)C[N+](CC)(CCCNC(=O)Nc1ccccc1)CCc1cccc(Cl)c1.[I-] (centres unmarked) [compound 423], the “Chemotaxis Assay 0.1 µg/ml (inhibition %)” value is reported as 92%.
For C=C(C)C[N+](CC)(CCCNC(=O)Nc1ccccc1)CCc1ccc(Cl)cc1Cl.[I-] (centres unmarked) [compound 424], the “Chemotaxis Assay 0.1 µg/ml (inhibition %)” value was 95%.
C=C(C)C[N+](CC)(CCCNC(=O)Nc1ccccc1)CCc1ccc(Cl)c(Cl)c1.[I-] (centres unmarked) [compound 425] was tested, and the “Chemotaxis Assay 0.1 µg/ml (inhibition %)” value was 93%.
C=C(C)C[N+](CC)(CCCNC(=O)Nc1ccccc1)CCc1ccccc1.[I-] (centres unmarked) [compound 426] was tested, and the “Chemotaxis Assay 0.1 µg/ml (inhibition %)” value was 44%.
CCC(CC)C[N+](CC)(CCCNC(=O)Nc1ccccc1)CCc1ccc(Cl)cc1.[I-] (centres unmarked) [compound 427] was tested, and the “Chemotaxis Assay 0.1 µg/ml (inhibition %)” value was 67%.
In the case of CCC(CC)C[N+](CC)(CCCNC(=O)Nc1ccccc1)CCc1cccc(Cl)c1.[I-] (centres unmarked) [compound 428], the “Chemotaxis Assay 0.1 µg/ml (inhibition %)” value is reported as 93%.
For CCC(CC)C[N+](CC)(CCCNC(=O)Nc1ccccc1)CCc1ccc(Cl)cc1Cl.[I-] (centres unmarked) [compound 429], the “Chemotaxis Assay 0.1 µg/ml (inhibition %)” value was 64%.
CCC(CC)C[N+](CC)(CCCNC(=O)Nc1ccccc1)CCc1ccc(Cl)c(Cl)c1.[I-] (centres unmarked) [compound 430] was tested, and the “Chemotaxis Assay 0.1 µg/ml (inhibition %)” value was 76%.
With CCC(CC)C[N+](CC)(CCCNC(=O)Nc1ccccc1)CCc1cccc(F)c1.[I-] (centres unmarked) [compound 431] the “Chemotaxis Assay 0.1 µg/ml (inhibition %)” value was 96%.
